Experimental data taken from patent US11820720B2, “3-(5-substituted-4-oxoquinazolin-3(4H)-yl)-3-deuteropiperidine-2,6-dione derivatives and compositions comprising and methods of using the same” (DeuteRx, LLC, priority 2013, dated 2023).

How the values were obtained:
[1] = In vitro stability in human plasma at 37° C. (enantiomerization, D/H exchange, degradation); format: in vitro ADME
Method: (§1) (+)- and (−)-3-(5-Amino-2-methyl-4-oxoquinazolin-3(4H)-yl)-piperidine-2,6-dione and rac-3-(5-amino-2-methyl-4-oxoquinazolin-3(4H)-yl)-(3-^2H)-piperidine-2,6-dione (87% deuterium content at the C3-position and no detectable deuterium at the C5-position, 50:50 racemic mixture of (+)- and (−)-deuterated enantiomers) were incubated in CD-1 mouse plasma (K3EDTA as anticoagulant) or human plasma (K3EDTA as anticoagulant) at 37° C. in duplicates. Aliquots were removed at t=0, 0.5, 1, 2, 6, 8, 24, 48, and 96 h.
(§2) Plasma proteins were precipitated by addition of acetonitrile containing internal standard (ISTD, tolbutamide) and the supernatants were analyzed semi-quantitatively by LC/MS-MS with elution on a chiral column (Daicel ChiralPak IE-3) for the separation of enantiomers (isocratic method of 20:80 v/v 0.1% acetic acid in water and acetonitrile). Peak areas for the deuterated enantiomers (+)- and (−)-3-(5-amino-2-methyl-4-oxoquinazolin-3(4H)-yl)-(3-^2H)-piperidine-2,6-dione were normalized to the ISTD and corrected for the isotopic peak of the corresponding protonated enantiomer, (+)- and (−)-3-(5-amino-2-methyl-4-oxoquinazolin-3(4H)-yl)-piperidine-2,6-dione respectively, if present. Corrected data were analyzed and plotted using Microsoft Excel 2013 (Microsoft Corp, Redmond, WA) and the Excel Solver.
(§3) Scheme 1 below illustrates the possible reactions in a solution of deuterated racemate. The deuterium in both enantiomers, d+ and d−, can be lost by D/H exchange to give both protonated enantiomers, h+ and h− with rate constants kD++, kD+−, kD−+, kD−−. At the same time, the protonated enantiomers h+ and h−, can exchange, with enantiomerization rate constants k+− and k−+. All four compounds can also degrade with potentially different degradation rate constants kh+d, kh−d, kd+d, kd−d.
(§4) Human and mouse plasma data were analyzed independently. Independent analyses of the data for h+ and h− were performed first and the average rate constants k+− and k−+ from these two fits were calculated and used as constants in the fitting of the stability data of the deuterated racemate. Calculated concentrations were obtained through numerical approximation of differential equations (1) and (2) for the stability studies of h+ and h− and equations (3) to (6) for the stability study of deuterated racemate (50:50 d+:d−) by the Euler method (equation (7)). The step between calculated time points was minimized in order to minimize the local error (proportional to the square of the step size) and the global error (proportional to the step size).
(§5) The average degradation rate constant obtained by fitting the data for h+ and h− was used in the fit of the stability data of the deuterated racemate. Data analysis was performed in Microsoft Excel 2013, using the Solver Generalized Reduced Gradient Nonlinear method with central derivatives to minimize the sum of sums of weighted Δ^2, square of difference between ISTD-normalized experimental data and calculated value, divided by the experimental data.
(§6) [formula] where [h+], [h−], [d+], [d−] are the concentrations of both protonated and deuterated enantiomers, k+− and k−+ are the rate constants for the enantiomerization reactions [h+] to [h−] and [h−] to [h+] respectively, kD++, kD+−, kD−+, and kD−− are the rate constants for the D/H exchange reactions [d+] or [d−] to [h+] or [h−], and kd is the rate constant for the degradation of all four compounds
(§7) [formula] where [X]ti is the concentration of either enantiomer at time ti, t1 is a time at which [X] is known, t2 is a time at which [X] is calculated, and [d[X]]t1 is the calculated value of the differential equation at time t1.

[2] = Pharmacokinetics after single oral gavage dose in female CB.17 SCID mice; format: in vivo; conditions: for AUC, compound analyzed d+ / AUC, compound analyzed d− / AUC, compound analyzed h+ / AUC, compound analyzed h−: 15 mg/kg
Method: Female CB.17 SCID mice (8-12 weeks of age) were administered a single dose of protonated racemate (h-rac, 30 mg/kg), d− (15 mg/kg), or d+ (15 mg/kg) by oral gavage. Deuterated enantiomers (i.e., d− and d+) used in this study contain ˜10% of the corresponding protonated enantiomer. Blood was collected into potassium EDTA (K2EDTA) containers by terminal cardiac puncture under carbon dioxide anesthesia from N=3 per group per time point at 0.25, 0.5, 1, 2, 4, 8, and 24 h post-dose. Plasma was isolated, frozen, and stored until ready for analysis.
Samples were prepared for quantitative analysis by liquid-liquid extraction in methyl-t-butylether (MTBE) with ondansetron as internal standard (ISTD). MTBE was evaporated under nitrogen flow and samples were reconstituted in 1% acetic acid in water/acetonitrile (20/80). Analysis was performed by chiral LC/MS-MS on a Daicel ChiralPak IE-3 column using an isocratic LC method of 0.1% acetic acid in water and acetonitrile (20:80 v/v). ISTD-normalized peak areas for deuterated enantiomers d- and d+ were corrected from interference from naturally occurring isotopes of the protonated analytes. Concentrations were obtained by interpolation on standard curves prepared in mouse plasma using standard solutions of the analytes.
Data was plotted in Excel 2013 (Microsoft Corp, Redmond, WA) and analyzed within Excel using the PKSolver add-in (version 2.0, as described in Zhang Y. et al Comput. Methods Programs Biomed. 99 (2010), 306-314) to determine pharmacokinetic parameters including exposure (as area under the curve, AUC) and elimination half-life (t1/2).

[3] = In vitro stability in CD-1 mouse plasma at 37° C. (enantiomerization, D/H exchange, degradation); format: in vitro ADME
Method: as §1, §2, §3, §4, §5, §6, §7

[4] = system: Human Multiple Myeloma H929 Cell Line; assay: Efficacy in human multiple myeloma H929 xenograft in female CB.17 SCID mice; format: in vivo; conditions: daily oral gavage 23 days, FIG. 10; for potency/efficacy at limiting tumor growth, comparison between compounds: d− and d+ 1.5 or 15 mg/kg, h-rac 3 mg/kg
Method: Female CB.17 SCID mice (8-12 weeks of age, N=60) were administered 1×10^7 H929 tumor cells in 50% Matrigel subcutaneously in their flank (0.2 mL/mouse). Animals were returned to their cages and tumor growth was monitored. Tumor size was reported as tumor volume (Vol) calculated as Vol=½ (L*W^2), where L and W are the length and width of the tumor as measured by caliper (L>W). A pair match was performed when tumors reached an average size of 100-150 mm^3 and the animals were divided into 6 treatment groups of N=10 animals each.
Animals were treated daily by oral gavage (10 mL/kg) with vehicle, d− (1.5 or 15 mg/kg), d+ (1.5 or 15 mg/kg), or h-rac (racemic mixture of protonated enantiomers h− and h+; 3 mg/kg). The compound h-rac was administered at twice the dose of the deuterated enantiomers since it contains 50% (i.e., 1.5 mg/kg) of each enantiomer. Body weight measurements were taken daily for the first week then biweekly. Tumor sizes were measured by caliper biweekly. The study was terminated after 23 days of dosing, then all animals were euthanized.

[5] = mouse plasma, single oral gavage 15 mg/kg
[6] = human plasma, 37° C., fit to equations 1 to 6
[7] = human plasma, 37° C., average of values for h− and h+
[8] = mouse plasma, 37° C., fit to equations 1 to 6
[9] = mouse plasma, 37° C., average of values for h− and h+

Cc1nc2cccc(N)c2c(=O)n1C1CCC(=O)NC1=O (single isomer, unassigned; (-)) [h−, (−)-3-(5-amino-2-methyl-4-oxoquinazolin-3(4H)-yl)-piperidine-2,6-dione, reference compound]
k +− (enantiomerization rate constant h+ to h−) ([1]; human): 0.231 h⁻¹ | k d (degradation rate constant) ([1]; human): 2.35e-05 s⁻¹ | k −+ (enantiomerization rate constant h− to h+) ([1]; human): 0.169 h⁻¹ | half-life ([1]; human, plasma, Calculated half-life t1/2, degradation d): 8.2 h | half-life ([1]; human, plasma, Calculated half-life t1/2, enantiomerization +−): 3 h | share of the total exposure ([2]; mice, exposure to the enantiomers of the protonated molecule (h-rac dosed)): 39% | k +− (enantiomerization rate constant h+ to h−) ([3]; CD-1, mouse): 0.0722 h⁻¹ | k d (degradation rate constant) ([3]; CD-1, mouse): 1.51e-05 s⁻¹ | k −+ (enantiomerization rate constant h− to h+) ([3]; CD-1, mouse): 0.0730 h⁻¹ | half-life ([3]; CD-1, mouse, plasma, Calculated half-life t1/2, degradation d): 12.7 h | half-life ([3]; CD-1, mouse, plasma, Calculated half-life t1/2, enantiomerization +−): 9.6 h | half-life ([3]; CD-1, mouse, plasma, Calculated half-life t1/2, enantiomerization −+): 9.5 h

Cc1nc2cccc(N)c2c(=O)n1C1CCC(=O)NC1=O (single isomer, unassigned; (+)) [h+, (+)-3-(5-amino-2-methyl-4-oxoquinazolin-3(4H)-yl)-piperidine-2,6-dione, reference compound]
k +− (enantiomerization rate constant h+ to h−) ([1]; human): 0.297 h⁻¹ | k d (degradation rate constant) ([1]; human): 2.68e-05 s⁻¹ | k −+ (enantiomerization rate constant h− to h+) ([1]; human): 0.220 h⁻¹ | Calculated half-life t1/2, degradation d ([1]; human, plasma): 7.2 h | Calculated half-life t1/2, enantiomerization +− ([1]; human, plasma): 2.3 h | half-life ([1]; human, plasma, Calculated half-life t1/2, enantiomerization −+): 3.2 h | k +− (enantiomerization rate constant h+ to h−) ([3]; CD-1, mouse): 0.0603 h⁻¹ | k d (degradation rate constant) ([3]; CD-1, mouse): 1.45e-05 s⁻¹ | k −+ (enantiomerization rate constant h− to h+) ([3]; CD-1, mouse): 0.119 h⁻¹ | Calculated half-life t1/2, degradation d ([3]; CD-1, mouse, plasma): 13.3 h | Calculated half-life t1/2, enantiomerization +− ([3]; CD-1, mouse, plasma): 11.5 h | Calculated half-life t1/2, enantiomerization −+ ([3]; CD-1, mouse, plasma): 5.8 h

[2H]C1(n2c(C)nc3cccc(N)c3c2=O)CCC(=O)NC1=O (single isomer, unassigned; (+)) [d+, (+)-3-(5-Amino-2-methyl-4-oxoquinazolin-3(4H)-yl)-(3-^2H)-piperidine-2,6-dione]
efficacy (tumor volume) by dose ([4]; 1.5 or 15 mg/kg): observed only at the highest dose | potency/efficacy at limiting tumor growth, comparison between compounds [4]: less efficacious than d− | t1/2, compound analyzed d+ [2, 5]: 1.1 h | t1/2, compound analyzed h+ [2, 5]: 1.0 h | AUC, compound analyzed d+ [2, 5]: 63.6 µg·h/mL | AUC, compound analyzed d− [2, 5]: 0.661 µg·h/mL | AUC, compound analyzed h+ [2, 5]: 6.12 µg·h/mL | AUC, compound analyzed h− [2, 5]: 0.993 µg·h/mL

[2H]C1(n2c(C)nc3cccc(N)c3c2=O)CCC(=O)NC1=O (single isomer, unassigned; (-)) [d−, (−)-3-(5-Amino-2-methyl-4-oxoquinazolin-3(4H)-yl)-(3-^2H)-piperidine-2,6-dione]
potency/efficacy at limiting tumor growth, comparison between compounds [4]: more potent at limiting tumor growth at both doses than h-rac | t1/2, compound analyzed d− [2, 5]: 1.2 h | t1/2, compound analyzed h− [2, 5]: 1.2 h | AUC, compound analyzed d+ [2, 5]: 0.898 µg·h/mL | AUC, compound analyzed d− [2, 5]: 44.1 µg·h/mL | AUC, compound analyzed h+ [2, 5]: 1.18 µg·h/mL | AUC, compound analyzed h− [2, 5]: 6.16 µg·h/mL

3-(5-amino-2-methyl-4-oxoquinazolin-3(4H)-yl)-(3-^2H)-piperidine-2,6-dione [d-rac]
Calculated half-life t1/2, D/H exchange of d+ (D++ and D+−) ([1]; human plasma, 37° C.): 8.3 h | Calculated half-life t1/2, D/H exchange of d− (D−+ and D−−) ([1]; human plasma, 37° C.): 5.2 h | Calculated half-life t1/2, degradation d ([1]; human plasma, 37° C.): 7.8 h | Calculated half-life t1/2, enantiomerization +− ([1]; human plasma, 37° C.): 2.6 h | Calculated half-life t1/2, enantiomerization −+ ([1]; human plasma, 37° C.): 3.6 h | k D++ (rate constant D/H exchange d+ to h+) [1, 6]: 2.33e-05 s⁻¹ | k D+− (rate constant D/H exchange d+ to h−) [1, 6]: 0 s⁻¹ | k D−+ (rate constant D/H exchange d− to h+) [1, 6]: 0 s⁻¹ | k D−− (rate constant D/H exchange d− to h−) [1, 6]: 3.72e-05 s⁻¹ | k +− (enantiomerization rate constant used in analysis of d-rac) [1, 7]: 0.264 h⁻¹ | k d (degradation rate constant for the enantiomers of d-rac) [1, 7]: 2.51e-05 s⁻¹ | k −+ (enantiomerization rate constant used in analysis of d-rac) [1, 7]: 0.195 h⁻¹ | Calculated half-life t1/2, D/H exchange of d+ (D++ and D+−) ([3]; mouse plasma, 37° C.): 14.5 h | Calculated half-life t1/2, D/H exchange of d− (D−+ and D−−) ([3]; mouse plasma, 37° C.): 12.7 h | Calculated half-life t1/2, degradation d ([3]; mouse plasma, 37° C.): 13.0 h | Calculated half-life t1/2, enantiomerization +− ([3]; mouse plasma, 37° C.): 10.5 h | Calculated half-life t1/2, enantiomerization −+ ([3]; mouse plasma, 37° C.): 7.2 h | k D++ (rate constant D/H exchange d+ to h+) [3, 8]: 1.29e-05 s⁻¹ | k D+− (rate constant D/H exchange d+ to h−) [3, 8]: 3.03e-07 s⁻¹ | k D−+ (rate constant D/H exchange d− to h+) [3, 8]: 4.61e-06 s⁻¹ | k D−− (rate constant D/H exchange d− to h−) [3, 8]: 1.06e-05 s⁻¹ | k +− (enantiomerization rate constant used in analysis of d-rac) [3, 9]: 0.0662 h⁻¹ | k d (degradation rate constant for the enantiomers of d-rac) [3, 9]: 1.48e-05 s⁻¹ | k −+ (enantiomerization rate constant used in analysis of d-rac) [3, 9]: 0.0959 h⁻¹
